Reference: US20080293916A1, “Hla-Binding Peptide, and Dna Fragment and Recombinant Vector Coding for Said Hla-Binding Peptide” (NEC CORPORATION, priority 2004, published 2008)
Ends that are not written are not given here.

B1: HLA-A24-binding peptide of SEQ ID NO 1 (WT1 peptide, SEQ NAME 356) (peptide)
peptide: DFKDCERRF
notes: Synthesised by the Fmoc solid-phase method, purity 95% or higher

molecular target: HLA-A2 molecule, product of the HLA-A*0201 gene (Homo sapiens, UniProt P04439, D140Y/D185E/D98H/E176V/E277Q/G131W/G231S/I119V/I121R/I166T/I218V/L300P/L318F/N151K/N90K/P208A/P217A/Q86G/Q94H/R138H/R169H/T345S); assay: Experiment of binding peptide to HLA-A2 molecule (JY cells, flow cytometer); conditions: not given
Protocol: (§1) <Experiment of Binding Peptide to HLA-A2 Molecule>
(§2) JY cells were first exposed to acidic conditions at a pH of 3.8 for 30 seconds, thus dissociating and removing a light chain β2m and an endogenous peptide, which were noncovalently associated with the HLA-A*0201 molecule. After neutralization, a reassociation experiment was carried out.
(§3) The above-mentioned JY cells and the purified β2m were added to stepped dilutions of peptide for which the binding ability would be measured, and incubation was carried out on ice for 4 hours. HLA-A*0201 molecules that had reassociated up to this point were stained using the associating type specific fluorescently-labeled monoclonal antibody BB7.2.
(§4) Subsequently, the amount of fluorescence per cell was measured using a flow cytometer and a dissociation constant Kd value in molar concentration was calculated by a published method (Udaka et al., Immunogenetics, 51, 816-828, 2000).

First: NLGATLKGV [compound 31]
Second: GVFRGIQDV [compound 51]
The Kd of the first is 5.8-fold higher: 8.17 µM for the first, 1.41 µM for the second. The second binds more tightly here.

First: ALLLRTPYS [compound 38]
Second: NLYQMTSQL [compound 44]
The Kd of the first is 3.1-fold higher: 4.69 µM for the first, 1.49 µM for the second. The second binds more tightly here.

Going from ILCGAQYRI [compound 40] to NMTKLQLAL [compound 49], the Kd falls from 7.51 µM to 3.71 µM (2-fold).

First: ALLPAVPSL [compound 33]
Second: QQYSVPPPV [compound 39]
The Kd of the first is 230-fold lower: 0.0143 µM for the first, 3.24 µM for the second. The first binds more tightly here.

same assay, conditions: −log Kd value (Kd in molar concentration); HLA-A2, JY cells, on ice 4 hours; read-out: BINDING EXPERIMENT DATA (converted)

VAAGSSSSV [compound 43] was tested, and the Kd was 9.95 µM.

molecular target: T1, HLA-A24 molecule (product of the HLA-A*2402 gene) on C1R-A24 cells (human); assay: reassociation on acid-stripped C1R-A24 cells with added beta2m, mAb 17A12 staining, flow cytometry; conditions: not given
T1 construct: MHC class I molecule on cells; Emptied by acid treatment (pH 3.3, 30 s), then reassociated with added purified beta2m and the test peptide; also called HLA-A*2402 molecule; human HLA-A24 molecule

Compared with QYRIHTHGV [HLA-A24-binding peptide of SEQ ID NO 30 (WT1 peptide, SEQ NAME 285)], B1 is lower in “-log Kd” value: 5.62 -log Kd (Kd in molar concentration) for the first, 4.4 -log Kd (Kd in molar concentration) for the second.

First: DVRDLNALL [HLA-A24-binding peptide of SEQ ID NO 5 (WT1 peptide, SEQ NAME 4)]
Second: NMTKLQLAL (also called NMTKLQLAL) [HLA-A24-binding peptide of SEQ ID NO 10 (WT1 peptide, SEQ NAME 441)]
The “-log Kd” value of the first is lower: 4.45 -log Kd (Kd in molar concentration) for the first, 6.38 -log Kd (Kd in molar concentration) for the second.

Going from ALLPAVPSL [HLA-A24-binding peptide of SEQ ID NO 2 (WT1 peptide, SEQ NAME 10)] to YRIHTHGVF [HLA-A24-binding peptide of SEQ ID NO 3 (WT1 peptide, SEQ NAME 286)], the “-log Kd” value falls from 9.16 -log Kd (Kd in molar concentration) to 4.39 -log Kd (Kd in molar concentration).

First: SFIKQEPSW [HLA-A24-binding peptide of SEQ ID NO 6 (WT1 peptide, SEQ NAME 70)]
Second: NLYQMTSQL [HLA-A24-binding peptide of SEQ ID NO 29 (WT1 peptide, SEQ NAME 225)]
The “-log Kd” value of the first is higher: 8.16 -log Kd (Kd in molar concentration) for the first, 4.38 -log Kd (Kd in molar concentration) for the second.

First: ILCGAQYRI (also called ILOGAQYRI) [HLA-A24-binding peptide of SEQ ID NO 14 (WT1 peptide, SEQ NAME 280)]
Second: PPPPPHSFI [HLA-A24-binding peptide of SEQ ID NO 7 (WT1 peptide, SEQ NAME 64)]
The “-log Kd” value of the first is higher: 5.9 -log Kd (Kd in molar concentration) for the first, 4.4 -log Kd (Kd in molar concentration) for the second.

With PPPPPPHSF [HLA-A24-binding peptide of SEQ ID NO 4 (WT1 peptide, SEQ NAME 63)] the “-log Kd” value was 4.4 -log Kd (Kd in molar concentration).

test system: human HLA-A type molecule; assay: Binding experiment, result stated in words for HLA-A type molecule; conditions: not given
Protocol: <Experiment of Binding Peptide to HLA-A24 Molecule>
The ability of a peptide to bind to an HLA-A24 molecule, which is a product of the HLA-A*2402 gene, was measured using C1R-A24 cells expressing the HLA-A24 molecule (cells prepared by Professor Masafumi Takiguchi, Kumamoto University being supplied with permission by Assistant Professor Masaki Yasukawa, Ehime University).
C1R-A24 cells were first exposed to acidic conditions at a pH of 3.3 for 30 seconds, thus dissociating and removing a light chain β2m, which is associated with HLA class I molecules in common, and an endogenous peptide originally bound to the HLA-A*2402 molecule. After neutralization, purified β2m was added to C1R-A24 cells, the obtained product was added to serial dilutions of a peptide, and incubated on ice for 4 hours. Staining was carried out using fluorescently labeled monoclonal antibody 17A12, which recognizes association (MHC-pep) of the three members, that is, HLA-A*2402 molecule, the peptide, and β2m, which had reassociated during the incubation.
Subsequently, the MHC-pep count per C1R-A24 cell (proportional to the strength of fluorescence of the above-mentioned fluorescent antibody) was quantitatively measured using an FACScan fluorescence-activated cell sorter (Becton Dickinson Biosciences). A binding dissociation constant Kd value between the HLA-A24 molecule and the peptide was calculated from the average strength of fluorescence per cell by a published method (Udaka et al., Immunogenetics, 51, 816-828, 2000).
as §1, §2, §3, §4

With SFIKQEPSW [compound 6] the “binding to a human HLA-A type molecule (in words)” value (from here on “binding”) was “experimentally confirmed to bind”.
DFKDCERRF [compound 1] was tested, and the “binding” value was “experimentally confirmed to bind”.
NMTKLQLAL [compound 10] was tested, and the “binding” value was “experimentally confirmed to bind”.
For QYRIHTHGV [compound 30], the “binding” value was “experimentally confirmed to bind”.
For ALLPAVPSL [compound 2], the “binding” value was “experimentally confirmed to bind”.
NLYQMTSQL [compound 29] was tested, and the “binding” value was “experimentally confirmed to bind”.
In the case of YRIHTHGVF [compound 3], the “binding” value is reported as “experimentally confirmed to bind”.
In the case of DVRDLNALL [compound 5], the “binding” value is reported as “experimentally confirmed to bind”.
In the case of PPPPPPHSF [compound 4], the “binding” value is reported as “experimentally confirmed to bind”.
For PPPPPHSFI [compound 7], the “binding” value was “experimentally confirmed to bind”.
With ILCGAQYRI [compound 14] the “binding” value was “experimentally confirmed to bind”.

molecular target: T2, HLA-A2 molecule (product of the HLA-A*0201 gene) on JY cells (human); assay: reassociation on acid-stripped JY cells with added beta2m, mAb BB7.2 staining, flow cytometry; conditions: not given
T2 construct: MHC class I molecule on cells; Emptied by acid treatment (pH 3.8, 30 s), then reassociated with added purified beta2m and the test peptide; also called HLA-A*0201 molecule; human HLA-A2 molecule

Compared with NLGATLKGV [HLA-A2-binding peptide of SEQ ID NO 31 (WT1 peptide, SEQ NAME 242)], NLYQMTSQL [HLA-A2-binding peptide of SEQ ID NO 44 (WT1 peptide, SEQ NAME 225)] is higher in “-log Kd” value: 5.09 -log Kd (Kd in molar concentration) for the first, 5.83 -log Kd (Kd in molar concentration) for the second.

Going from VAAGSSSSV [HLA-A2-binding peptide of SEQ ID NO 43 (WT1 peptide, SEQ NAME 250)] to QQYSVPPPV [HLA-A2-binding peptide of SEQ ID NO 39 (WT1 peptide, SEQ NAME 191)], the “-log Kd” value rises from 5 -log Kd (Kd in molar concentration) to 5.49 -log Kd (Kd in molar concentration).

Compared with ALLPAVPSL [HLA-A2-binding peptide of SEQ ID NO 33 (WT1 peptide, SEQ NAME 10)], GVFRGIQDV [HLA-A2-binding peptide of SEQ ID NO 51 (WT1 peptide, SEQ NAME 292)] is lower in “-log Kd” value: 7.84 -log Kd (Kd in molar concentration) for the first, 5.85 -log Kd (Kd in molar concentration) for the second.

Going from NMTKLQLAL (also called NMTKLQLAL) [HLA-A2-binding peptide of SEQ ID NO 49 (WT1 peptide, SEQ NAME 441)] to ALLLRTPYS [HLA-A2-binding peptide of SEQ ID NO 38 (WT1 peptide, SEQ NAME 214)], the “-log Kd” value falls from 5.43 -log Kd (Kd in molar concentration) to 5.33 -log Kd (Kd in molar concentration).

ILCGAQYRI (also called ILOGAQYRI) [HLA-A2-binding peptide of SEQ ID NO 40 (WT1 peptide, SEQ NAME 280)] was tested, and the “-log Kd” value was 5.12 -log Kd (Kd in molar concentration).
